# In paper PMC3423427, “Design and Synthesis of Potent N-Acylethanolamine-hydrolyzing Acid Amidase (NAAA) Inhibitor as Anti-Inflammatory Compounds” (PLoS ONE, 2012):
# What was measured:
# [1] = system: iNOS; conditions: RAW264.7, 0.5 µg/ml LPS
# Procedure: (§1) HEK293 cells overexpressing rat NAAA (HEK293-rNAAA) and rat FAAH (HEK293-rFAAH) were kind gifts from Dr. Daniele Piomelli in University of California, Irvine. The stable-overexpressing cell lines were maintained in Dulbecco’s Modified Eagle Medium (DMEM, Hyclone, Beijing, China) supplemented with 10% FBS (Gibco®, Shanghai, China) containing 0.3 mg/mL G418. Mouse macrophage cells RAW264.7 and Human Embryonic Kidney cell HEK293 cells were purchased from American Type Culture Collection (ATCC, Beijing, China) and maintained in DMEM supplemented with 10% FBS in humidified 5% CO2 atmosphere at 37°C. RAW264.7 cells were plated and cultured overnight until 80% confluence and then incubated with a series of compound 16 of different concentrations for 30 min before challenged by LPS.
# (§2) Total RNA was extracted from RAW264.7 cells with TRIzol (Invitrogen) and quantified by spectrophotometer (Beckman coulter, Shanghai, China). cDNA was synthesized from 1 µg of total RNA by using ReverTra Ace qPCR RT Kit (TOYOBO, Shanghai, China) following the manufacturer’s instructions. Real-time quantitative PCR was performed in a 7300 Real Time PCR System (Applied Biosystems, Shanghai, China) and RNA levels were normalized using glyceraldehyde-3-phosphate dehydrogenase (GAPDH) as an internal standard.
# [2] = system: IL-6; conditions: RAW264.7, 0.5 µg/ml LPS
# Procedure: as §1, §2
# [3] = target: T1, N-acylsphingosine amidohydrolase (ASAH) (Homo sapiens, UniProt Q13510); test: ASAH activity assay (Figure S1); format: biochemical; conditions: 100 µM (Figure S1)
# T1 sequence (Q13510 22-395): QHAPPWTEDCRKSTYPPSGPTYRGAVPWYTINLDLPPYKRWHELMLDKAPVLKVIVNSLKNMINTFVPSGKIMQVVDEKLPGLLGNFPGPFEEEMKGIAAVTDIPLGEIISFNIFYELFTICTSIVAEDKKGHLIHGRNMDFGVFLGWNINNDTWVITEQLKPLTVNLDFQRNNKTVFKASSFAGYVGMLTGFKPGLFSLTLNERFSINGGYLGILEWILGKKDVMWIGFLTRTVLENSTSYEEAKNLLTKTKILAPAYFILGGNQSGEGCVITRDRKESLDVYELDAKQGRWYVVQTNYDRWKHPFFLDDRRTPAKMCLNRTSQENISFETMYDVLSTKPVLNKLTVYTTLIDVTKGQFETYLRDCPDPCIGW
# Procedure: Supplementary file pone.0043023.s001.pdf: Figure S1 Effect of vehicle (open bar) and compound 16 (100 µM, closed bars) on the activity of NAAA, FAAH, MGL, and ASAH. ***, p<0.001, one-way ANOVA, n = 3. (PDF) Click here for additional data file.
# [4] = target: T2, rat FAAH (Rattus norvegicus, UniProt P97612); test: FAAH enzymatic assay (recombinant rFAAH protein, LC/MS); format: biochemical
# T2 construct: made in house; host or cells: HEK293 cells stably overexpressing rat FAAH (HEK293-rFAAH), a gift from D. Piomelli; crude cell extract
# T2 sequence (P97612 1-579): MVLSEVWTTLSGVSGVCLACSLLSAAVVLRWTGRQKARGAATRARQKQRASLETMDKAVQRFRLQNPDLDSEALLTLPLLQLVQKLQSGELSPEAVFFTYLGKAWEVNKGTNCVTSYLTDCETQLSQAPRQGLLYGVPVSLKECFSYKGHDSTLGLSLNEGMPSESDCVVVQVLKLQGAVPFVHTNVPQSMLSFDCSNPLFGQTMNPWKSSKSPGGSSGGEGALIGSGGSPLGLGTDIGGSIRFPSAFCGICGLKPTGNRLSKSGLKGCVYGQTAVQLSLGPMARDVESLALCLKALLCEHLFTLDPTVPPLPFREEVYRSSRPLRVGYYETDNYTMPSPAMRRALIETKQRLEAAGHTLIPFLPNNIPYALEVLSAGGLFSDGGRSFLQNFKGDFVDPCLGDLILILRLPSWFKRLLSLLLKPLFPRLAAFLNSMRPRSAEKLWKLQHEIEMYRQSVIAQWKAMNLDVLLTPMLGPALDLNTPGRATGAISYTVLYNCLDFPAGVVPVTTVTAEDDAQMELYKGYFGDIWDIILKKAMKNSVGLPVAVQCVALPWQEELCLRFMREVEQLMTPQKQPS
# Procedure: HEK293-rNAAA or HEK293-rFAAH cells were harvested, washed with PBS, sonicated in 20 mM Tris-HCl (pH 7.5) containing 0.32 M sucrose, and centrifuged at 800 × g for 15 min at 4°C. The supernatants were collected and protein concentrations were measured by BCA protein assay kit (Pierce, Shanghai, China). […] The reactions were terminated by adding 0.2 mL methanol containing 1 nmol heptadecanoic acid and analyzed in LC/MS.
# We use an Agilent 1200-LC system coupled to a 3200Q TRAP-MS detector equipped with an ESI interface (Agilent Technologies, Shanghai, China). […] The column temperature was set at 40°C. […] Mass spectrometer (MS) detection was ionized by positive-ion atmospheric pressure chemical ionization mode (APCI^+) and monitored in MRM mode. […] Quantifications were calculated at chromatographic peak areas by using Analyst® version 1.4.1. software (Applied Biosystems).
smiles,measurement,setting,value
"O=C(CCc1ccc(-c2ccccc2)cc1)N1CCCC1 [Compound 16, 1–(2–Biphenyl–4–yl)ethyl–carbonyl pyrrolidine]",LPS-induced iNOS mRNA expression,[1],reversed dose-dependently
same,LPS-induced IL-6 mRNA expression,[2],reversed dose-dependently
same,inhibitory effect on ASAH,[3],no inhibitory effect
same,IC50,"[4]; IC50 ± S.E.M., triplicate, 25 µM anandamide, pH 8.0",> 100 µM
same,reduction of FAAH activity,[4]; at concentration of 100 µM,no more than 30%
